Experimental findings from patent publication EP1053246B1, “BETA-SHEET MIMETICS AND METHODS RELATING TO THE USE THEREOF” (MOLECUMETICS, LTD., priority 1998, dated 1999) are described below.

The target in test [1] is T1, thrombin (Bos taurus, UniProt P00735). Kind of test: thrombin inhibition assay (IC50, Example 4). The format is biochemical, bovine. Conditions: footnote d: IC50.
In test [2] the target is T2, Plasmin (Bos taurus, UniProt P06868). Kind of test: plasmin inhibition assay (IC50, Example 4). The class given is biochemical. The arrangement: Plasmin: Buffer (see thrombin assay). To be noted: footnote d: IC50. As to the method:
(§1) All inhibition assays of this experiment were performed at room temperature in 96 well microplates using a Bio-Rad microplate reader (Model 3550). […] This solution (2.05 mM) served as the stock solution for all the inhibition assays. The hydrolysis of chromogenic substrates was monitored at 405 nm. The reaction progress curves were recorded by reading the plates typically 90 times with 30 seconds to 2 minute intervals. The initial rate were determined by unweighted nonlinear least-squares fitting to a first order reaction in GraFit.
For dilutions of structure (13b) (see urokinase assay).

The next test concerns the target T3, bovine trypsin (Bos taurus, UniProt P00760).
T3 construct: purchased Sigma
Kind of test: trypsin inhibition assay (IC50, Example 4). The format is biochemical. Conditions: footnote d: IC50. Here is the method: as §1
In the trypsin assay, pH 7.8 Tris (0.10 M Tris and 0.02 M CaCl2) was utilized as the buffer. BAPNA (from Sigma) was used at 1 mg/ml in 1% DMSO (v/v) deionized water solution as substrate. The same dilutions of structure (13b) were made as for Factor VII assay.

The target of another test is T4, bovine factor Xa (Bos taurus, UniProt P00743).
T4 construct: bovine factor Xa (from Sigma); purchased Sigma
Kind of test: Factor X inhibition assay (IC50, Example 4). The format is biochemical. To be noted: footnote d: IC50; footnote e: bovine plasma; read-out: IC50 Factor X. As to the method: as §1
In the Factor X assay, buffer and substrate are the same as used for thrombin assay. A 1:100 dilution was made into pH 8.4 Tris buffer to serve as the first point. Seven dilutions with a dilution factor of 2 were made. The assay protocol is the same as for thrombin except 25 nM of bovine factor Xa (from Sigma) in pH 8.4 Tris buffer was used instead of thrombin.

In test [3] the target is Activated Protein C (aPC) (Homo sapiens, UniProt P04070). Kind of test: activated protein C inhibition assay (IC50, Example 4). The format is biochemical. To be noted: footnote d: IC50. As to the method:
as §1
Activated Protein C (aPC): Buffer was the same as used in thrombin assay. […] Dilutions of structure (13b) were the same as in urokinase assay.

For test [4], the target named is Tissue Plasminogen Activator (t-PA) (Homo sapiens, UniProt P00750). The experiment in a line: t-PA inhibition assay (IC50, Example 4). The format is biochemical. To be noted: footnote d: IC50. As to the method:
as §1

For a further test, the target named is T5, FVIIa and TF complex (Homo sapiens, UniProt P08709).
T5 construct: 50 µl of 16 nM FVIIa and TF complex solution
The experiment in a line: Factor VII inhibition assay (IC50, Example 4). To be noted: footnote d: IC50. The class given is biochemical. Here is the method:
as §1
In the Factor VII assay, S-2288 (from Pharmacia), D-Ile-Pro-Arg-pNA was used at […] in deionized water as substrate. […] This dilution served as the first point of the inhibitor (20 µM). From this concentration point 6 more sequential dilutions were made with a dilution factor of 2. 50 µl of 16 nM FVIIa and TF complex solution and 40 µl of the inhibitor solutions were added into each well, the mixtures were incubated for 20 minutes before 10 µl of 20 mM S-2288 was added.

The target of test [5] is T6, urokinase (Homo sapiens, UniProt P00749). The experiment in a line: urokinase inhibition assay (IC50, Example 4). The class given is biochemical. To be noted: footnote d: IC50. Set-up: purchased Sigma. Here is the method: as §1
In the urokinase assay, buffer was pH 8.8 0.05 M Tris and 0.05 M NaCl in deionized water. S-2444 (from Sigma), pyroGlu-Gly-Arg-pNA at 0.5 mM in water was utilized as substrate. The same dilution procedure was used as for Factor VII and Factor X. Assay protocol is the same as for thrombin except 18.5 nM of human urokinase (from Sigma) was utilized.

Another test addresses t-PA (Homo sapiens, UniProt P00750). Kind of test: t-PA inhibition assay (Ki, Example 5). To be noted: tissue Plasminogen Activator; read-out: Ki (M) tPA. The class given is biochemical. As to the method:
(§2) The reaction progress curves were recorded by reading the plates, typically 60 times with 30 second to 2 minute intervals. Initial rates were determined by unweighted nonlinear least-squares fitting to a first order reaction in GraFit (Erithacus Software Limited, London, England).

For the next test, the target named is T7, factor VII (Homo sapiens, UniProt P08709).
T7 construct: human Factor VIIa (FVIIa)
T7 sequence (P08709 61-212 limits assumed): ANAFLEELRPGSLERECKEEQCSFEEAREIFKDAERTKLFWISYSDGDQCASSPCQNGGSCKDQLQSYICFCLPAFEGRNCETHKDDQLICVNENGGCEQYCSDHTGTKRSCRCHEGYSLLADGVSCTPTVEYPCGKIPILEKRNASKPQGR
T7 sequence (P08709 213-466 limits assumed): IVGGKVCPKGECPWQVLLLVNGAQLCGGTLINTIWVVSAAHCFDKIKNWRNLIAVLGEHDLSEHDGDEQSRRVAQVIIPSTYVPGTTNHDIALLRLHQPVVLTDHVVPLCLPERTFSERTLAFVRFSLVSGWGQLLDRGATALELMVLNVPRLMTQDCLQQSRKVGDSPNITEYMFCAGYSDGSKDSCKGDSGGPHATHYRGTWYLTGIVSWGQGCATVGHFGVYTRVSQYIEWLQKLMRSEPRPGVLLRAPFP
Kind of test: Factor VII inhibition assay (Ki, Example 5). The format is biochemical. Conditions: read-out: Ki (M) Factor VII. As to the method: as §2
From this concentration point seven more sequential dilutions were made for the assay.

The target in test [6] is T6, urokinase. Kind of test: urokinase inhibition assay (Ki, Example 5). The format is biochemical, human kidney. Set-up: from tissue; host or cells: human kidney.
The target in test [7] is T2, Plasmin. Kind of test: plasmin inhibition assay (Ki, Example 5). The format is biochemical, bovine plasma. Set-up: Plasmin: Buffer (see thrombin assay); from tissue; host or cells: bovine plasma. To be noted: read-out: Ki (M) Plasmin. As to the method:
as §2

The next test addresses Factor XI (Homo sapiens, UniProt P03951). Kind of test: Factor XI inhibition assay (Ki). The class given is biochemical. Conditions: read-out: Ki (M) Factor XI.
The target of test [8] is T1, thrombin. The experiment in a line: thrombin inhibition of solid phase synthesized mimetics. The format is biochemical. Conditions: assayed as mixtures of diastereomers; read-out: Ki as thrombin inhibitors (asterisk at compound number). As to the method: General Procedure: The synthesis of β-strand mimetics was initiated by deprotection of Fmoc PAL resin using 25% piperidine in DMF. Following extensive washing with DMF, the resin was treated with the acid fluoride of N-Fmoc-4-aminomethylbenzoic acid, or (81), or (86) and Hunigs' base in DMF until the Kaiser test was negative. Alternatively, the Fmoc-protected thiazole- (75) or imidazole-based (77) linkers were coupled to the resin using BOP, HOBt and DIEA. In some instances Fmoc-Leu or another amino acid was attached to the resin prior to the thiazole- (75) or imidazole-based (77) linkers via the same methodology. […] Deprotection of all Fmoc-protected linkers was effected by treatment with 25% piperidine in DMF, and deprotection the Boc-protected linker (77) was effected by TMS-Cl (1 M) and phenol (3 M) in dichloromethane for 30 min. The lysinol derivative (90) was coupled to resin-bound linkers N-Fmoc-4-aminomethylbenzoic acid, (81), or (86) using PyBOP, HOBt and Hunigs' base in DMF until a negative Kaiser test was achieved. Treatment of the resin with 25% piperidine in DMF then cleaved the FMOC group. Following washing with DMF a dienoic acid was coupled to the resin-bound linkers using PyBOP, HOBt and Hunigs' base in DMF until the result of a Kaiser test was negative. […]

T2 sequence (P06868 104-583 limits assumed): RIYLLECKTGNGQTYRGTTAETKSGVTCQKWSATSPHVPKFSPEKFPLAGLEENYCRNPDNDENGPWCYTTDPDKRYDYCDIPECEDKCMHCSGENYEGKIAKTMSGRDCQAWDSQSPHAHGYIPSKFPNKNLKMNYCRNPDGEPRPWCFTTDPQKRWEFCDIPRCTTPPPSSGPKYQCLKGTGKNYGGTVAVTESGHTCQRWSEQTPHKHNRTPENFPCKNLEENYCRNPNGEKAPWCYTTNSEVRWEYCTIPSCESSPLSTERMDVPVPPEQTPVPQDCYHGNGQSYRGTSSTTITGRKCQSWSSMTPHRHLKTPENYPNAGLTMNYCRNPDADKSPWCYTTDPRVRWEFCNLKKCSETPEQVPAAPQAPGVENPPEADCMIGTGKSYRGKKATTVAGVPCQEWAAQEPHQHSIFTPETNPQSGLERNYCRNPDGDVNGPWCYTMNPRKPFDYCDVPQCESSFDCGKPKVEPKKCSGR
T2 sequence (P06868 584-812 limits assumed): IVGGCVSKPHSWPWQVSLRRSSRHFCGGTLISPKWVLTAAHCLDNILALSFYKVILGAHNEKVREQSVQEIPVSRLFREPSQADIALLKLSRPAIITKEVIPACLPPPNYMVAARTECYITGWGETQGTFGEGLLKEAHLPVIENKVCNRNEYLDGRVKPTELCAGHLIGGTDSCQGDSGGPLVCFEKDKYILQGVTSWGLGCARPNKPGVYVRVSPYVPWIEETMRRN
T3 sequence (P00760 24-246): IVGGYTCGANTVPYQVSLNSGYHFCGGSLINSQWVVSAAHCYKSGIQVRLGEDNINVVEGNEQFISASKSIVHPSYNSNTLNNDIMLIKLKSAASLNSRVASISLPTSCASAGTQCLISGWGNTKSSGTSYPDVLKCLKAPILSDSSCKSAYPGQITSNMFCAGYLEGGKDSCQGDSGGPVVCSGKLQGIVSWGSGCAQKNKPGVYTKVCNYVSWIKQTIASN
Sequence of Activated Protein C (aPC) (P04070 43-197 limits assumed): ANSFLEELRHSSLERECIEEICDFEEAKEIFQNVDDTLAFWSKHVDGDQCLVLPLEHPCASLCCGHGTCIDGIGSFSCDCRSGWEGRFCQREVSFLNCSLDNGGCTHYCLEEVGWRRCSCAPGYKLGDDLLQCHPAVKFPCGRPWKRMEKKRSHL
Sequence of Activated Protein C (aPC) (P04070 212-461 limits assumed): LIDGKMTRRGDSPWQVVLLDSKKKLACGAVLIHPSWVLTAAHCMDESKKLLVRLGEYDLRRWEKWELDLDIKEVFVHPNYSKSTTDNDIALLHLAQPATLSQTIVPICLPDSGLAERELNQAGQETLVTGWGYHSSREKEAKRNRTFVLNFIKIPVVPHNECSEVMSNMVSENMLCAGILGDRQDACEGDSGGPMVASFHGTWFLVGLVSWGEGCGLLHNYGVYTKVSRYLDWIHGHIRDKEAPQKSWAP
Sequence of Factor XI (P03951 388-625 limits assumed): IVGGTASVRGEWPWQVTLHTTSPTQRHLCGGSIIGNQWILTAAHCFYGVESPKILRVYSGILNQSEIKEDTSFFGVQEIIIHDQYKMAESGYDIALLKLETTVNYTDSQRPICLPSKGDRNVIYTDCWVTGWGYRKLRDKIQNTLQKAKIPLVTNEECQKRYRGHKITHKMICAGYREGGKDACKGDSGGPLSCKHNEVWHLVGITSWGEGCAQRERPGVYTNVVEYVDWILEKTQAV
Sequence of Factor XI (P03951 19-387 limits assumed): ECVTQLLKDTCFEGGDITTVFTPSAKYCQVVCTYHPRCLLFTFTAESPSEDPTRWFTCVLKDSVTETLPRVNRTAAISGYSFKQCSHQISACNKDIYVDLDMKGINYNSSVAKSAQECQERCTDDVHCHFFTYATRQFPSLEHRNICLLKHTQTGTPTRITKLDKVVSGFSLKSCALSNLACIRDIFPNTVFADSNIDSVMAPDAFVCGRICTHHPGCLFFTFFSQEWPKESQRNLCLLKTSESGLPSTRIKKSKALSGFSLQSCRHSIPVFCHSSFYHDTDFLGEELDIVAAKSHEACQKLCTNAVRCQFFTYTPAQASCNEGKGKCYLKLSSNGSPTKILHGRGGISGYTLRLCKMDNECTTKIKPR
Sequence of Tissue Plasminogen Activator (t-PA) (P00750 36-562): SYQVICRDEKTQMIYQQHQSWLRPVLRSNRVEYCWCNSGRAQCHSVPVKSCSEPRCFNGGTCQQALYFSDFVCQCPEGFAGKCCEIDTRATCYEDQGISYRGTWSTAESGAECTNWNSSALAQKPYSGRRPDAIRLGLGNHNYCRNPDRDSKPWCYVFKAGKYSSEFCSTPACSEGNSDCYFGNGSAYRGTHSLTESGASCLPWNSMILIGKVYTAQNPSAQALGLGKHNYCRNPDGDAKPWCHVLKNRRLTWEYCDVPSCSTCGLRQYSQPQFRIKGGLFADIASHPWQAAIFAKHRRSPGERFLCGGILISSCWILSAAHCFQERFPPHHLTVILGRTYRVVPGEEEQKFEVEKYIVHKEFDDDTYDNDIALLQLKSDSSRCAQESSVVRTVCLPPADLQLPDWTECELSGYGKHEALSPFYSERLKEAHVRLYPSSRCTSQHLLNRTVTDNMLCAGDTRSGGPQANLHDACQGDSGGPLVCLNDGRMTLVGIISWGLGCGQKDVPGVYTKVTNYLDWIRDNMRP
Sequence of t-PA (P00750 36-562): as above
T5 sequence (P13726 33-295 partner, one chain of several): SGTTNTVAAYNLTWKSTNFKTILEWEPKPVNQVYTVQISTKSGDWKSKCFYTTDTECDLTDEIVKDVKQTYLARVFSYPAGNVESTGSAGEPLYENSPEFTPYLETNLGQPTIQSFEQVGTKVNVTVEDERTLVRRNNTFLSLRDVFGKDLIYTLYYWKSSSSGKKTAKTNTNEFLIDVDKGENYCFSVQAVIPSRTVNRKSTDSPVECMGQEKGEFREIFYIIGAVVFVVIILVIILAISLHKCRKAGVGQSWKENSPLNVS
T4 sequence (P00743 41-180 limits assumed): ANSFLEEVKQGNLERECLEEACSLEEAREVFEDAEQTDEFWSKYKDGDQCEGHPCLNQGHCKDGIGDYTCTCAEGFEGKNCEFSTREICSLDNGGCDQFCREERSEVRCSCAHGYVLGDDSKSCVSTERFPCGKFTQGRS
T4 sequence (P00743 234-492 limits assumed): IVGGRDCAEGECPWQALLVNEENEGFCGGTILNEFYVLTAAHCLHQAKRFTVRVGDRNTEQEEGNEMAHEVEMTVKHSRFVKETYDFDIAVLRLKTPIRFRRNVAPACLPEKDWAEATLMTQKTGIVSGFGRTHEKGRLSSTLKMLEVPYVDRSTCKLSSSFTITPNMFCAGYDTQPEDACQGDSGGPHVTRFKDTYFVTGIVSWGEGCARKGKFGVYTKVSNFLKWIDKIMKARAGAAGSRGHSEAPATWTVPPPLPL

For the compound `N=C(N)NCCC[C@H](NC(=O)[C@@H]1CCN2CC[C@@](N)(Cc3ccccc3)C(=O)N12)C(=O)CCl` [Structure (13b)], the concentration for half-maximal inhibition (IC50) – broadly, the point on the concentration scale where inhibition reaches its midpoint – against thrombin [1] came to 1.2 nM; on Plasmin [2] it was 978 nM; against bovine trypsin, 160 nM; on bovine factor Xa, 386 nM; in [3] it was 528 nM; in test [4], 632 nM. Besides, the concentration for half-maximal inhibition (IC50) against FVIIa and TF complex stood at 140 nM; at urokinase [5], 927 nM.
On to `N=C(N)NCCCC(NC(=O)C1CCN2CCC(N)(Cc3ccccc3)C(=O)N12)C(=O)c1nc2ccccc2s1` (centres unmarked) [Structure (20b)], for which the inhibitory constant (Ki) (in general, a measure of affinity in units of concentration, obtained from inhibition or displacement) amounted to 4.95e-07 M at t-PA; 2.7e-07 M at factor VII; 600 nM on urokinase [6]; 4.15e-07 M on Plasmin [7]; 2.7e-08 M at Factor XI.
`CC/C=C\CCC1C=CC(C(=O)NC(CCCCN)C(=O)C(=O)NCCc2ccc(C(N)=O)cc2)n2c(=O)n(CC(c3ccccc3)c3ccccc3)c(=O)n21` (centres unmarked) [compound 106]: at thrombin [8], the inhibitory constant (Ki) is less than 10 nM.
